Measured values: ChEMBL document CHEMBL3797201, “Synthesis of N-1', N-3'-disubstituted spirohydantoins and their anticonvulsant activities in pilocarpine model of temporal lobe epilepsy” (Bioorg Med Chem Lett, 2016)
Active and inactive are the calls of the source. The calls are words filed in the database; no cut-off is given here.

Tests used:
Rattus norvegicus [1] = assay: Anticonvulsant activity in pilocarpine-induced status epilepticus Sprague-Dawley rat model at 100 mg/kg, ip administered 2 hrs prior to pilocarpine challenge; type: functional, organism-based
Rattus norvegicus [2] = assay: Toxicity in pilocarpine-induced status epilepticus Sprague-Dawley rat model assessed as sedation at 100 mg/kg, ip administered 2 hrs prior to pilocarpine challenge; type: organism-based; conditions: in vivo
Rattus norvegicus [3] = assay: Toxicity in pilocarpine-induced status epilepticus Sprague-Dawley rat model assessed as loss of righting reflex at 100 mg/kg, ip administered 2 hrs prior to pilocarpine challenge measured within 10 mins and upto 4 hrs; type: organism-based; conditions: in vivo
Rattus norvegicus [4] = assay: Anticonvulsant activity in pilocarpine-induced status epilepticus Sprague-Dawley rat model assessed as motor seizure onset time at 100 mg/kg, ip administered 2 hrs prior to pilocarpine challenge (reference value: 6 mins); type: functional
Rattus norvegicus [5] = assay: Anticonvulsant activity in pilocarpine-induced status epilepticus Sprague-Dawley rat model assessed as delay in motor seizure onset time at 100 mg/kg, ip administered 2 hrs prior to pilocarpine challenge; type: functional, organism-based
Rattus norvegicus [6] = assay: Anticonvulsant activity in pilocarpine-induced status epilepticus Sprague-Dawley rat model assessed as recovered from seizure within 90 to 120 mins at 100 mg/kg, ip administered 2 hrs prior to pilocarpine challenge; type: functional, organism-based
Rattus norvegicus [7] = assay: Anticonvulsant activity in pilocarpine-induced status epilepticus Sprague-Dawley rat model assessed as decrease in progression of motor seizure at 100 mg/kg, ip administered 2 hrs prior to pilocarpine challenge; type: functional, organism-based
Rattus norvegicus [8] = assay: Anticonvulsant activity in pilocarpine-induced status epilepticus Sprague-Dawley rat model assessed as recovered from pre-stage of motor seizue within 30 mins at 100 mg/kg, ip administered 2 hrs prior to pilocarpine challenge; type: functional, organism-based
Rattus norvegicus [9] = assay: Anticonvulsant activity in pilocarpine-induced status epilepticus Sprague-Dawley rat model assessed as survival rate at 100 mg/kg, ip administered 2 hrs prior to pilocarpine challenge (reference value: 53%); type: functional

Question: For `CCCN1C(=O)N(c2ccccc2CC)C(=O)C12OC(=O)c1ccccc12` (racemic), which Activity (Rattus norvegicus [1]) is on record?
Answer: Active

Question: For `O=C1OC2(C(=O)N(c3ccccc3)C(=O)N2c2ccccc2)c2ccccc21` (racemic), which Activity (Rattus norvegicus [2]) is on record?
Answer: Toxic

Question: And the Activity (Rattus norvegicus [3])?
Answer: Toxic

Question: Which Time (Rattus norvegicus [4]) does the source give for `O=C1OC2(C(=O)N(c3ccc([N+](=O)[O-])cc3)C(=O)N2c2ccccc2)c2ccccc21` (racemic) here?
Answer: 104 min

Question: What does the source list for `CCN1C(=O)N(c2ccc(OC)cc2OC)C(=O)C12OC(=O)c1ccccc12` (racemic)?
Answer: Activity (Rattus norvegicus [1]): Active; Activity (Rattus norvegicus [5]): Active; Activity (Rattus norvegicus [6]): Active; Activity (Rattus norvegicus [7]): Active; Activity (Rattus norvegicus [8]): Active

Question: `O=C1OC2(C(=O)N(c3ccc([N+](=O)[O-])cc3)C(=O)N2C2CC2)c2ccccc21` (racemic) was tested. Which Activity (Rattus norvegicus [1]) did it give?
Answer: Active

Question: And the Activity (Rattus norvegicus [6])?
Answer: Active

Question: `CCCN1C(=O)N(c2ccc(CC)cc2)C(=O)C12OC(=O)c1ccccc12` (racemic) was tested. Which Activity (Rattus norvegicus [5]) did it give?
Answer: Active

Question: Which Activity (Rattus norvegicus [1]) does the source give for `CCN1C(=O)N(c2ccc([N+](=O)[O-])cc2)C(=O)C12OC(=O)c1ccccc12` (racemic) here?
Answer: Active

Question: What about the Activity (Rattus norvegicus [6]) of the same compound?
Answer: Active

Question: `CCCN1C(=O)N(c2ccc([N+](=O)[O-])cc2)C(=O)C12OC(=O)c1ccccc12` (racemic) was tested. Which Activity (Rattus norvegicus [1]) did it give?
Answer: Active

Question: And the Activity (Rattus norvegicus [5])?
Answer: Active

Question: And the Activity (Rattus norvegicus [6])?
Answer: Active

Question: With `CCc1cccc(CC)c1N1C(=O)N(CC)C2(OC(=O)c3ccccc32)C1=O` (racemic) as the compound, how does the Activity (Rattus norvegicus [1]) read?
Answer: Active

Question: With `O=C1OC2(C(=O)N(c3ccc(Cl)cc3)C(=O)N2C2CC2)c2ccccc21` (racemic) as the compound, how does the Activity (Rattus norvegicus [1]) read?
Answer: Active

Question: Which results are given for `O=C1NC(=O)C(c2ccccc2)(c2ccccc2)N1` [PHENYTOIN]?
Answer: Time (Rattus norvegicus [4]): 12 min; survival at 100 mg/kg (Rattus norvegicus [9]): 67%

Question: Which results are given for `CCCN1C(=O)N(c2ccccc2)C(=O)C12OC(=O)c1ccccc12` (racemic)?
Answer: Activity (Rattus norvegicus [2]): Toxic; Activity (Rattus norvegicus [3]): Toxic

Question: `O=C1OC2(C(=O)N(c3ccc(Cl)cc3)C(=O)N2c2ccccc2)c2ccccc21` (racemic) was tested. Which Activity (Rattus norvegicus [5]) did it give?
Answer: Active

Question: How did the Activity (Rattus norvegicus [1]) turn out when `CCCN1C(=O)N(c2ccc(Cl)cc2)C(=O)C12OC(=O)c1ccccc12` (racemic) was run?
Answer: Active

Question: For `CCc1ccc(N2C(=O)N(C3CC3)C3(OC(=O)c4ccccc43)C2=O)cc1` (racemic), which Activity (Rattus norvegicus [5]) is on record?
Answer: Active

Question: With `O=C1OC2(C(=O)N(c3ccccc3)C(=O)N2C2CC2)c2ccccc21` (racemic) as the compound, how does the Activity (Rattus norvegicus [2]) read?
Answer: Toxic

Question: What about the Activity (Rattus norvegicus [3]) of the same compound?
Answer: Toxic
